The source of these data is patent publication US20250268894A1, “MACROCYCLE COMPOUNDS FOR THE TREATMENT OF CANCER” (Hoffmann-La Roche Inc., priority 2022, published 2025).

Experiment [1] has as its system NCI-H358 cells (KRAS G12C). As to the kind of experiment: Cell viability assay (Cell Counting Kit-8), KRAS G12C. The class given is cell-based. Particulars: Homo sapiens, NCI-H358, 72 hrs. As to the method: (§1) The purpose of this cellular assay was to determine the effects of test compounds on the proliferation of human cancer cell lines NCI-H358 (ATCC-CRL5807) cells, AGS (ATCC-CRL-1739) cells, SW620 (ATCC-CCL-227) over a 3-day treatment period by quantifying the amount of NADPH present at endpoint using Cell Counting Kit-8.
(§2) Cells were seeded at 5,000 cells/well (NCI-H358), 2,000 cells/well (AGS)2,000 cells/well (SW620) in 96-well assay plates (Corning-3699) and incubated overnight. On the day of the assay, diluted compounds were then added in a final concentration of 0.5% DMSO. After 72 hrs incubation, a tenth of the volume of cell counting kit 8 (Dnjindo-CK04) was added into each well. Read the signal (OD450 minus OD650) using EnVision after 2 hrs incubation. IC50 was determined by fitting a 4-parameter sigmoidal concentration response model.
A general note: Tetrazolium assays rely on reduction of a dye to a coloured formazan, in cell work by metabolically active cells.

The subject of experiment [2] is AGS cells (KRAS G12D). The experiment is described as follows: Cell viability assay (Cell Counting Kit-8), KRAS G12D. The class given is cell-based. Particulars: Homo sapiens, 72 hrs. As to the method:
as §1, §2

The subject of experiment [3] is SW620 cells (KRAS G12V). As to the kind of experiment: Cell viability assay (Cell Counting Kit-8), KRAS G12V. Particulars: Homo sapiens, SW-620, SW620, 72 hrs. The class given is cell-based. As to the method:
as §1, §2

Experiment [4] deals with phosphorylation of ERK, KRAS G12C in NCI-H358 cells. As to the kind of experiment: pERK inhibition assay, KRAS G12C in NCI-H358 cells. In kind it is cell-based, human. To be noted: NCI-H358, 4 hours. The protocol:
(§3) This assay is to measure the ability of test compounds in inhibiting the phosphorylation of ERK, the downstream signaling of KRAS G12C in NCI-H358 cells, KRAS G12D in AGS cells, and KRAS G12V in SW620. NCI-H358 (ATCC-CRL5807) cells, AGS (ATCC-CRL-1739) cells, SW620 (ATCC-CCL-227) cells were all grown and maintained using RPMI-1640 medium (Thermo Fisher Scientific) with 10% fetal bovine serum and 1% penicillin/streptomycin. On the day prior to compound addition, cells were plated in tissue culture-treated 96 well plates (Corning-3699) at a density of 30,000 cell/well, 20,000 cell/well, 30,000 cell/well for NCI-H358, AGS and SW620 respectively, and allowed for attachment overnight. Diluted compounds were then added in a final concentration of 0.5% DMSO. After 4 hours of incubation, the medium was removed, 100 μL of 4% formaldehyde was added, and the assay plates were incubated at room temperature for 20 minutes. The plates were then washed once with phosphate buffered saline (PBS), and permeabilized with 100 μL of chilled methanol for 10 minutes. Non-specific antibody binding to the plates was blocked using 50 μL 1X BSA blocking buffer (Thermo-37520, 10-fold dilution by Phosphate-Buffered Saline Tween (PBST) for at least 1 hour at room temperature.
(§4) The amount of phosphor-ERK was determined using an antibody specific for phosphorylated form of ERK. Primary antibody (PERK, CST-4370, Cell Signaling Technology) was diluted 1:300 in blocking buffer, with 50 μL aliquoted to each well, and incubated overnight at 4° C. Cells was washed five times for 5 minutes with PBST. Secondary antibody (HRP-linked anti-rabbit IgG, CST-7074, Cell Signaling Technology) was diluted 1:1000 in blocking buffer, and 50 μL was added to each well and incubated 1-2 hrs at room temperature. Cells was washed […] for 5 minutes with PBST, 100 μL TMB ELISA substrate (abcam-ab171523) were added and gently shake for 20 minutes. 50 μL stop solution (abcam-ab171529) were added, and then read the signal (OD450) by EnVision.
(§5) IC50 was determined by fitting a 4-parameter sigmoidal concentration response model.

Experiment [5] has as its system phosphorylation of ERK, KRAS G12D in AGS cells. The experiment is described as follows: pERK inhibition assay, KRAS G12D in AGS cells. The class given is cell-based, human. Particulars: 4 hours. As to the method: as §3, §4, §5
Experiment [6] relates to phosphorylation of ERK, KRAS G12V in SW620 cells. As to the kind of experiment: pERK inhibition assay, KRAS G12V in SW620. The class given is cell-based, human. The protocol:
as §3, §4, §5

Where [7] appears, read: Homo sapiens, SW-620, SW620, 4 hours.

Consider `CO[C@@H](C)c1ncc(N2CCN(C)CC2)cc1-c1c2c3c(F)c(ccc3n1CC(F)(F)F)-c1csc(n1)C[C@H](NC(=O)[C@H](C(C)C)N(C)C(=O)N1CC(N(C)C)C1)C(=O)N1CCC[C@H](N1)C(=O)OCC(C)(C)C2` (atropisomer, axis not shown; (M)) [Example 2, 3-(dimethylamino)-N-[(1S)-1-[[(7S,13S)-25-fluoro-(20M)-20-[2-[(1S)-1-methoxyethyl]-5-(4-methylpiperazin-1-yl)-3-pyridyl]-17,17-dimethyl-8,14-dioxo-21-(2,2,2-trifluoroethyl)-15-oxa-4-thia-9,21,27,28-tetrazapentacyclo[17.5.2.1^2,5.1^9,13.0^22,26]octacosa-1(25),2,5 (28),19,22 (26),23-hexaen-7-yl]carbamoyl]-2-methyl-propyl]-N-methyl-azetidine-1-carboxamide], for which the IC50 – broadly, the midpoint of a concentration-inhibition curve – in experiment [1] was found to be 4 nM; in experiment [2] it was 16 nM; in experiment [3], 3 nM; in experiment [4] (Homo sapiens), 1 nM; in experiment [5] (Homo sapiens), 5 nM; in experiment [6] (setting [7]), 4 nM.
For the compound `CO[C@@H](C)c1ncc(N2CCN(C)CC2)cc1-c1c2c3cc(ccc3n1CC(F)(F)F)-c1csc(n1)C[C@H](NC(=O)[C@H](C(C)C)N(C)C(=O)N1CCOCC1)C(=O)N1CCC[C@H](N1)C(=O)OCC(C)(C)C2` (atropisomer, axis not shown; (M)) [Example 3, N-[(1S)-1-[[(7S,13S)-24-fluoro-(20M)-20-[2-[(1S)-1-methoxyethyl]-5-(4-methylpiperazin-1-yl)-3-pyridyl]-17,17-dimethyl-8,14-dioxo-21-(2,2,2-trifluoroethyl)-15-oxa-4-thia-9,21,27,28-tetrazapentacyclo[17.5.2.1^2,5.1^9,13.0^22,26]octacosa-1 (25),2,5 (28),19,22 (26),23-hexaen-7-yl]carbamoyl]-2-methyl-propyl]-N-methyl-morpholine-4-carboxamide], the half-inhibitory concentration (IC50) was determined as 1 nM in experiment [1]; 15 nM in experiment [2]; 1 nM in experiment [3]; 1 nM in experiment [4] (Homo sapiens); 1 nM in experiment [5] (Homo sapiens); 1 nM in experiment [6] (setting [7]).
For `CO[C@@H](C)c1ncc(N2CCOCC2)cc1-c1c2c3cc(c(F)cc3n1CC(F)(F)F)-c1csc(n1)C[C@H](NC(=O)[C@H](C(C)C)N(C)C(=O)N1CC(N(C)C)C1)C(=O)N1CCC[C@H](N1)C(=O)OCC(C)(C)C2` (atropisomer, axis not shown; (M)) [Example 4, 3-(dimethylamino)-N-[(1S)-1-[[(7S,13S)-24-fluoro-(20M)-20-[2-[(1S)-1-methoxyethyl]-5-morpholino-3-pyridyl]-17,17-dimethyl-8,14-dioxo-21-(2,2,2-trifluoroethyl)-15-oxa-4-thia-9,21,27,28-tetrazapentacyclo[17.5.2.1^2,5.1^9,13.0^22,26]octacosa-1 (25),2,5 (28),19,22 (26),23-hexaen-7-yl]carbamoyl]-2-methyl-propyl]-N-methyl-azetidine-1-carboxamide], the half-inhibitory concentration (IC50) in experiment [1] amounted to 3 nM; in experiment [2], 17 nM; in experiment [3] it was 1 nM; in experiment [4] (Homo sapiens) it was 1 nM; in experiment [5] (Homo sapiens) it was 3 nM; in experiment [6] (setting [7]) it was 1 nM.
`CCn1c(-c2cc(N3CCOCC3)cnc2[C@H](C)OC)c2c3cc(c(F)cc31)-c1csc(n1)C[C@H](NC(=O)[C@H](C(C)C)N1CCN(C)C1=O)C(=O)N1CCC[C@H](N1)C(=O)OCC(C)(C)C2` (atropisomer, axis not shown; (M)) [Example 8, (2S)-N-[(7S,13S)-21-ethyl-24-fluoro-(20M)-20-[2-[(1S)-1-methoxyethyl]-5-morpholino-3-pyridyl]-17,17-dimethyl-8,14-dioxo-15-oxa-4-thia-9,21,27,28-tetrazapentacyclo[17.5.2.1^2,5.1^9,13.0^22,26]octacosa-1 (25),2,5 (28),19,22 (26),23-hexaen-7-yl]-3-methyl-2-(3-methyl-2-oxo-imidazolidin-1-yl) butanamide]: the IC50 in experiment [1] came to 12 nM; in experiment [2], 57 nM; in experiment [3] it was 7 nM; in experiment [4] (Homo sapiens) it was 24 nM; in experiment [5] (Homo sapiens), 24 nM; in experiment [6] (setting [7]), 5 nM.
As for `COC(C)c1ncc(N2CCN(CC(F)(F)F)CC2)cc1-c1c2c3cc(c(F)cc3n1CC(F)(F)F)-c1csc(n1)CC(NC(=O)C(C(C)C)N(C)C(=O)N1CCN(C)CC1)C(=O)N1CCCC(N1)C(=O)OCC(C)(C)C2` [Example 18, N-[(1S)-1-[[(7S,13S)-24-fluoro-(20M)-20-[2-[(1S)-1-methoxyethyl]-5-[4-(2,2,2-trifluoroethyl)piperazin-1-yl]-3-pyridyl]-17,17-dimethyl-8,14-dioxo-21-(2,2,2-trifluoroethyl)-15-oxa-4-thia-9,21,27,28-tetrazapentacyclo[17.5.2.1^2,5.1^9,13.0^22,26]octacosa-1 (25),2,5 (28),19,22 (26),23-hexaen-7-yl]carbamoyl]-2-methyl-propyl]-N,4-dimethyl-piperazine-1-carboxamide], the IC50 in experiment [4] amounted to 23 nM; in experiment [5] it was 12 nM; in experiment [6] (SW620, 4 hours), 7 nM.
For the compound `COC(C)c1ncc(N2CCN(CC(F)(F)F)CC2)cc1-c1c2c3cc(c(F)cc3n1CC(F)(F)F)-c1csc(n1)CC(NC(=O)C(C(C)C)N(C)C(=O)N1CCN(CC(F)(F)F)CC1)C(=O)N1CCCC(N1)C(=O)OCC(C)(C)C2` [Example 19, N-[(1S)-1-[[(7S,13S)-24-fluoro-(20M)-20-[2-[(1S)-1-methoxyethyl]-5-[4-(2,2,2-trifluoroethyl)piperazin-1-yl]-3-pyridyl]-17,17-dimethyl-8,14-dioxo-21-(2,2,2-trifluoroethyl)-15-oxa-4-thia-9,21,27,28-tetrazapentacyclo[17.5.2.1^2,5.1^9,13.0^22,26]octacosa-1 (25),2,5 (28),19,22 (26),23-hexaen-7-yl]carbamoyl]-2-methyl-propyl]-N-methyl-4-(2,2,2-trifluoroethyl) piperazine-1-carboxamide], the IC50 in experiment [4] was found to be 66 nM; in experiment [5] it was 54 nM; in experiment [6] (SW620, 4 hours), 16 nM.
